How the values were obtained:
activated T cells = conditions: Busso, N. et al. Plos One 3, e2267, 2008; cited from earlier work
[1] = test system: experimental autoimmune encephalomyelitis (EAE); conditions: model of T-cell mediated autoimmune disorders; Bruzzone, S et al. Plos One 4, e7897, 2009; cited from earlier work
[2] = test system: collagen-induced arthritis; conditions: Busso, N. et al. Plos One 3, e2267, 2008; cited from earlier work
PC3 cells = assay: NAMPT Cell Proliferation Assay (Cell Titer Glo; also performed in the presence of 0.3 mM nicotinamide mononucleotide); assay type: cell-based; conditions: Homo sapiens, PC-3, 120 h, 5 days incubation, cell viability by Cell Titer Glo
Method in brief: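 IC50 values derive from sigmoidal dose-response fits of percent inhibition of PC3 viability, measured by luminescence after 5 days of compound treatment. Cells (500/well, RPMI containing 10% heat-inactivated FBS) are allowed to attach overnight, and compounds are tested at 10-fold dilutions between 10 μM and 1×10^−5 μM.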

| IC50 (PC3 cells) [nM] | Compound | apoptosis of activated T cells (activated T cells) | proliferation of activated T cells (activated T cells) | manifestations of experimental autoimmune encephalomyelitis (EAE) [1] | efficacy in animal models of arthritis (collagen-induced arthritis) [2] |
| --- | --- | --- | --- | --- | --- |
|  | O=C(/C=C/c1cccnc1)NCCCCC1CCN(C(=O)c2ccccc2)CC1 [FK866] | induce apoptosis | selectively block proliferation | ameliorated the manifestations | efficacious |
| 675 | CC1(Cn2cc(-c3ccc(NC(=O)C4CN(c5cccnn5)C4)cc3)cn2)CCNCC1 [Example 873, N-(4-{1-[(4-methylpiperidin-4-yl)methyl]-1H-pyrazol-4-yl}phenyl)-1-(pyridazin-3-yl)azetidine-3-carboxamide] |  |  |  |  |
| > 10000 | Cn1nc(C(=O)O)cc1-c1ccc(NC(=O)C2CN(c3cccnn3)C2)cc1 [Example 911, 1-methyl-5-[4-({[1-(pyridazin-3-yl)azetidin-3-yl]carbonyl}amino)phenyl]-1H-pyrazole-3-carboxylic acid] |  |  |  |  |
